# In PubChem BioAssay (NCI):
#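 How tested: cells in 96-well plates exposed to compound for 48 hours at five concentrations. GI50 is the concentration that inhibits growth by half. TGI: total growth inhibition.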
# Assays:
# Assay in all cases: DTP human tumour cell line panel, 48 h
# [1] = test system: 786-0 renal
# [2] = test system: A498 renal
# [3] = test system: A549 NSCLC
# [4] = test system: ACHN renal
# [5] = test system: BT-549 breast
# [6] = test system: CAKI-1 renal
# [7] = test system: CCRF-CEM leukemia
# [8] = test system: COLO 205 colon
# [9] = test system: DU-145 prostate
# [10] = test system: EKVX NSCLC
# [11] = test system: HCC-2998 colon
# [12] = test system: HCT-116 colon
# [13] = test system: HCT-15 colon
# [14] = test system: HL-60(TB) leukemia
# [15] = test system: HOP-62 NSCLC
# [16] = test system: HOP-92 NSCLC
# [17] = test system: HS 578T breast
# [18] = test system: HT29 colon
# [19] = test system: IGROV1 ovarian
# [20] = test system: K-562 leukemia
# [21] = test system: KM12 colon
# [22] = test system: LOX IMVI melanoma
# [23] = test system: M14 melanoma
# [24] = test system: MALME-3M melanoma
# [25] = test system: MCF7 breast
# [26] = test system: MDA-MB-231 breast
# [27] = test system: MDA-MB-435
# [28] = test system: MOLT-4 leukemia
# [29] = test system: NCI-H226 lung
# [30] = test system: NCI-H23 lung
# [31] = test system: NCI-H460 lung
# [32] = test system: NCI-H522 lung
# [33] = test system: NCI/ADR-RES ovarian
# [34] = test system: OVCAR-3 ovarian
# [35] = test system: OVCAR-4 ovarian
# [36] = test system: OVCAR-5 ovarian
# [37] = test system: OVCAR-8 ovarian
# [38] = test system: PC-3 prostate
# [39] = test system: RPMI-8226 leukemia
# [40] = test system: RXF 393 renal
# [41] = test system: SF-268 CNS
# [42] = test system: SF-295 CNS
# [43] = test system: SF-539 CNS
# [44] = test system: SK-MEL-28 melanoma
# [45] = test system: SK-MEL-5 melanoma
# [46] = test system: SK-OV-3 ovarian
# [47] = test system: SN12C renal
# [48] = test system: SNB-19 CNS
# [49] = test system: SNB-75 CNS
# [50] = test system: SR leukemia
# [51] = test system: SW-620 colon
# [52] = test system: T-47D breast
# [53] = test system: TK-10 renal
# [54] = test system: U251 CNS
# [55] = test system: UACC-257 melanoma
# [56] = test system: UACC-62 melanoma
# [57] = test system: UO-31 renal
compound,measurement,setting,value
COc1ccc2nc(NC(=O)c3cccnc3Nc3cc(OC)c(OC)c(OC)c3)sc2c1,GI50,[1],5.6 µM
same,TGI,[1],19.7 µM
same,GI50,[2],2190 nM
same,TGI,[2],7.42 µM
same,GI50,[3],7.38 µM
same,TGI,[3],22 µM
same,GI50,[4],6.47 µM
same,TGI,[4],20.6 µM
same,GI50,[5],11.6 µM
same,TGI,[5],28.2 µM
same,GI50,[6],16.4 µM
same,TGI,[6],42.5 µM
same,GI50,[7],20.1 µM
same,TGI,[7],> 100 µM
same,GI50,[8],17.4 µM
same,TGI,[8],51.5 µM
same,GI50,[9],14.6 µM
same,TGI,[9],33.8 µM
same,GI50,[10],11.5 µM
same,TGI,[10],55.6 µM
same,GI50,[11],17 µM
same,TGI,[11],39.4 µM
same,GI50,[12],4.5 µM
same,TGI,[12],18.4 µM
same,GI50,[13],11.2 µM
same,TGI,[13],85.6 µM
same,GI50,[14],32.3 µM
same,TGI,[14],> 100 µM
same,GI50,[15],6.33 µM
same,TGI,[15],22.3 µM
same,GI50,[16],2240 nM
same,TGI,[16],9.5 µM
same,GI50,[17],5.77 µM
same,TGI,[17],30.9 µM
same,GI50,[18],17.7 µM
same,TGI,[18],39.2 µM
same,GI50,[19],13.2 µM
same,TGI,[19],28.5 µM
same,GI50,[20],8.91 µM
same,TGI,[20],> 100 µM
same,GI50,[21],4.51 µM
same,TGI,[21],19 µM
same,GI50,[22],15.7 µM
same,TGI,[22],42.2 µM
same,GI50,[23],10.5 µM
same,TGI,[23],29.6 µM
same,GI50,[24],10.1 µM
same,TGI,[24],24.6 µM
same,GI50,[25],515 nM
same,TGI,[25],13.6 µM
same,GI50,[26],5.62 µM
same,TGI,[26],21.7 µM
same,GI50,[27],1850 nM
same,TGI,[27],10.4 µM
same,GI50,[28],24.2 µM
same,TGI,[28],> 100 µM
same,GI50,[29],10.7 µM
same,TGI,[29],96.7 µM
same,GI50,[30],5.38 µM
same,TGI,[30],22.7 µM
same,GI50,[31],7.42 µM
same,TGI,[31],24 µM
same,GI50,[32],2600 nM
same,TGI,[32],12 µM
same,GI50,[33],8.97 µM
same,TGI,[33],25.7 µM
same,GI50,[34],8.92 µM
same,TGI,[34],21.5 µM
same,GI50,[35],15 µM
same,TGI,[35],32.6 µM
same,GI50,[36],14.5 µM
same,TGI,[36],29 µM
same,GI50,[37],6.52 µM
same,TGI,[37],22.6 µM
same,GI50,[38],6.67 µM
same,TGI,[38],23.2 µM
same,GI50,[39],9.94 µM
same,TGI,[39],34.9 µM
same,GI50,[40],2600 nM
same,TGI,[40],8.85 µM
same,GI50,[41],4.43 µM
same,TGI,[41],18.9 µM
same,GI50,[42],8.34 µM
same,TGI,[42],27.1 µM
same,GI50,[43],2800 nM
same,TGI,[43],11.2 µM
same,GI50,[44],7.88 µM
same,TGI,[44],21.3 µM
same,GI50,[45],11.3 µM
same,TGI,[45],47.7 µM
same,GI50,[46],3.72 µM
same,TGI,[46],14.5 µM
same,GI50,[47],11.7 µM
same,TGI,[47],27.5 µM
same,GI50,[48],15 µM
same,TGI,[48],31.7 µM
same,GI50,[49],2890 nM
same,TGI,[49],12.8 µM
same,GI50,[50],2310 nM
same,TGI,[50],16.1 µM
same,GI50,[51],11.8 µM
same,TGI,[51],24.5 µM
same,GI50,[52],5.06 µM
same,TGI,[52],51.3 µM
same,GI50,[53],4.31 µM
same,TGI,[53],14.1 µM
same,GI50,[54],7.1 µM
same,TGI,[54],21.7 µM
same,GI50,[55],14.6 µM
same,TGI,[55],29.6 µM
same,GI50,[56],8.45 µM
same,TGI,[56],24.6 µM
same,GI50,[57],9.3 µM
same,TGI,[57],27.2 µM
